Measured values from patent US10815238B2, “Antimicrobial compounds and methods of making and using the same” (BIOVERSYS AG, priority 2013, dated 2020).
Read-outs that look alike come from different tables or passages of the source.

Tests used:
[1] = system: Eschericia coli (E. coli) strain ATCC25922; assay: Standard microdilution assay, MIC against E. coli ATCC25922; assay type: cell-based; details: Escherichia coli
Summary of the method: (§1)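 MIC determined by broth microdilution following CLSI protocols, with reference strains run in parallel for quality control. Activity scored +/− at a cutoff of 16 micrograms/mL.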

[2] = system: Staphylococcus aureus (S. aureus) 11540 strain; assay: Standard microdilution assay, MIC against S. aureus 11540; assay type: cell-based; details: read-out: MIC S. aureus
Summary of the method: as §1

[3] = E. coli strain ATCC25922, standard microdilution assay, cutoff 16 micrograms/mL, read-out: MIC E. Coli
[4] = S. aureus 11540 strain, standard microdilution assay, cutoff 16 micrograms/mL

Row | Structure (SMILES) | MIC [1, 3] | MIC [2, 4] | MIC ([1]; ATCC25922, read-out: MIC E. Coli) | MIC [2]
1 | C[C@@H](CN)CN1CC[C@@H](c2cc3cn(-c4ccc(CNCCCNC(=N)N)cc4)c(=O)nc3[nH]2)C1 [Compound 569] | < 16 µg/mL | < 16 µg/mL | – | –
2 | C[C@H](N)CCCc1cc(Cl)c(F)c(-c2cc3cn(-c4ccc([C@@H]5CC(CCNC(=N)N)CN5)cc4)c(=O)nc3[nH]2)c1 (stereo partly drawn) [Compound 405] | < 16 µg/mL | < 16 µg/mL | – | –
3 | C[C@H](N)CCCc1cc(Cl)c(F)c(-c2cc3cn(-c4ccc([C@@H]5CCC[C@@H](CCn6ccnc6)N5)cc4)c(=O)nc3[nH]2)c1 [Compound 533] | < 16 µg/mL | < 16 µg/mL | – | –
4 | COc1ccc(Cn2cc([C@@H]3COC[C@H](c4ccc(-n5cc6cc(-c7cc(CCC[C@H](C)N)cc(Cl)c7F)[nH]c6nc5=O)cc4)N3)nn2)cc1 [Compound 392] | > 16 µg/mL | < 16 µg/mL | – | –
5 | C[C@H](N)CCCc1cc(Cl)c(F)c(-c2cc3cn(-c4ccc([C@@H]5CCC[C@H](CCNC(=N)N)N5)cc4)c(=O)nc3[nH]2)c1 [Compound 438] | < 16 µg/mL | < 16 µg/mL | – | –
6 | C[C@@H](CNC(=N)N)CN1CC[C@@H](c2cc3cn(-c4ccc([C@H](C)NCCCNC(=N)N)cc4)c(=O)nc3[nH]2)C1 [Compound 576] | < 16 µg/mL | < 16 µg/mL | – | –
7 | C[C@H](N)CCCc1cc(OC(F)(F)F)c(F)c(-c2cc3cn(-c4ccc([C@H](N)CCNC(=N)N)cc4)c(=O)nc3[nH]2)c1 [Compound 443] | < 16 µg/mL | < 16 µg/mL | – | –
8 | C=C[C@H](CCNC(=N)N)N[C@@H](C)c1ccc(-n2cc3cc(-c4cc(CCC[C@H](C)N)cc(OC(F)(F)F)c4F)[nH]c3nc2=O)cc1 [Compound 383] | < 16 µg/mL | < 16 µg/mL | – | –
9 | C[C@H](N)CCCc1cc(Cl)c(F)c(-c2cc3cn(-c4ccc([C@@H]5CCC[C@@H](Cc6cnc(N)s6)N5)cc4)c(=O)nc3[nH]2)c1 [Compound 538] | > 16 µg/mL | < 16 µg/mL | – | –
10 | N=C(NC1CC1)c1ccc(-n2cc3cc(-c4ccc(S(=O)(=O)NC5CCNCC5)cc4)[nH]c3nc2=O)cc1 [Compound 502] | < 16 µg/mL | < 16 µg/mL | – | –
11 | CC[C@H](N)CCCc1cc(Cl)c(F)c(-c2cc3cn(-c4ccc(CNCC[C@H](CN)NC(=N)N)cc4)c(=O)nc3[nH]2)c1 [Compound 415] | < 16 µg/mL | < 16 µg/mL | – | –
12 | C[C@H](NCCCNC(=N)N)c1ccc(-n2cc3cc(-c4cc(CCC[C@@H](N)COP(=O)(Oc5ccccc5)Oc5ccccc5)cc(Cl)c4F)[nH]c3nc2=O)cc1 [Compound 488] | – | – | < 16 µg/mL | < 16 µg/mL
13 | C[C@H](N)CCCc1cc(Cl)c(F)c(-c2cc3cn(-c4ccc([C@H]5CCC[C@H](CCNC6=NCCN6)N5)cc4)c(=O)nc3[nH]2)c1 [Compound 541] | < 16 µg/mL | < 16 µg/mL | – | –
14 | C[C@@H](CN)CN1CC[C@@H](c2cc3cn(-c4ccc([C@H](C)NCCCNC(=N)N)cc4)c(=O)nc3[nH]2)C1 [Compound 575] | < 16 µg/mL | < 16 µg/mL | – | –
15 | C[C@H](N)CCCc1cc(Cl)c(F)c(-c2cc3cn(-c4ccc([C@H](C)NCC[C@@H](CN5CCOCC5)NC(=N)N)cc4)c(=O)nc3[nH]2)c1 [Compound 341] | < 16 µg/mL | < 16 µg/mL | – | –
16 | C[C@H](N)CCCc1cc(OC(F)(F)F)c(F)c(-c2cc3cn(-c4ccc([C@@H](N)CCNC(=N)N)cc4)c(=O)nc3[nH]2)c1 [Compound 428] | < 16 µg/mL | < 16 µg/mL | – | –
17 | C[C@H](N)CCCc1cccc(-c2cc3cn(-c4ccc([C@@H]5CCC[C@@H](CCNC(=N)N)N5)cc4)c(=O)nc3[nH]2)c1 [Compound 531] | < 16 µg/mL | < 16 µg/mL | – | –
18 | COC[C@@H](CCN[C@@H](C)c1ccc(-n2cc3cc(-c4cc(CCC[C@H](C)N)cc(Cl)c4F)[nH]c3nc2=O)cc1)NC(=N)N [Compound 330] | < 16 µg/mL | < 16 µg/mL | – | –
19 | C[C@H](N)CCN1CCC(c2cc3cn(-c4ccc([C@@H]5CCC[C@@H](CCNC(=N)N)N5)cc4)c(=O)nc3[nH]2)C1 (stereo partly drawn) [Compound 579] | < 16 µg/mL | < 16 µg/mL | – | –
20 | C[C@H](N)CCCc1cc(OC(F)(F)F)c(F)c(-c2cc3cn(-c4ccc([C@@H]5COC[C@@H](CNC(=N)N)N5)cc4)c(=O)nc3[nH]2)c1 [Compound 466] | < 16 µg/mL | < 16 µg/mL | – | –
21 | C[C@H](NCCCNC(=N)N)c1ccc(-n2cc3cc(-c4cc(CCC[C@@H](N)COP(=O)(O)O)cc(Cl)c4F)[nH]c3nc2=O)cc1 [Compound 487] | < 16 µg/mL | < 16 µg/mL | – | –
22 | COC[C@H](CCN[C@@H](C)c1ccc(-n2cc3cc(-c4cc(CCC[C@H](C)N)cc(OC(F)(F)F)c4F)[nH]c3nc2=O)cc1)NC(=N)N [Compound 346] | < 16 µg/mL | < 16 µg/mL | – | –
23 | C[C@H](N)CCCc1cc(Cl)c(F)c(-c2cc3cn(-c4ccc([C@@H](N)CCNC(=N)N)cc4)c(=O)nc3[nH]2)c1 [Compound 427] | < 16 µg/mL | < 16 µg/mL | – | –
24 | C[C@H](N)CCCc1cc(Cl)c(F)c(-c2cc3cn(-c4ccc(C5(N)CNC5)cc4)c(=O)nc3[nH]2)c1 [Compound 458] | > 16 µg/mL | < 16 µg/mL | – | –

Row | Structure (SMILES) | MIC [1, 3] | MIC [2, 4] | MIC ([1]; ATCC25922, read-out: MIC E. Coli) | MIC [2]
25 | COC[C@@H](CCNC(=N)N)NCc1ccc(-n2cc3cc(-c4cc(CCC[C@H](C)N)cc(Cl)c4F)[nH]c3nc2=O)cc1 [Compound 340] | < 16 µg/mL | < 16 µg/mL | – | –
26 | C[C@H](N)CCCc1cc(OC(F)(F)F)c(F)c(-c2cc3cn(-c4ccc([C@H](N)CCCN)cc4)c(=O)nc3[nH]2)c1 [Compound 455] | < 16 µg/mL | < 16 µg/mL | – | –
27 | C[C@H](CN)CN1CC[C@@H](c2cc3cn(-c4ccc([C@H](C)NCCCNC(=N)N)cc4)c(=O)nc3[nH]2)C1 [Compound 570] | < 16 µg/mL | < 16 µg/mL | – | –
28 | C[C@H](N)CCCc1cccc(-c2cc3cn(-c4ccc([C@H](C)NCCCNC(=N)N)cc4)c(=O)nc3[nH]2)c1 [Compound 521] | < 16 µg/mL | < 16 µg/mL | – | –
29 | C[C@H](N)CCCc1cc(Cl)c(F)c(-c2cc3cn(-c4ccc([C@H](C)NCC[C@H](CC(N)=O)NC(=N)N)cc4)c(=O)nc3[nH]2)c1 [Compound 348] | < 16 µg/mL | < 16 µg/mL | – | –
30 | C[C@H](N)CCCc1cc(Cl)c(F)c(-c2cc3cn(-c4ccc([C@@H]5CCC[C@@H](CCC6CC6)N5)cc4)c(=O)nc3[nH]2)c1 [Compound 532] | > 16 µg/mL | < 16 µg/mL | – | –
31 | CCOP(=O)(OCC)OC[C@@H]1COC[C@H](c2ccc(-n3cc4cc(-c5cc(CCC[C@H](C)N)cc(Cl)c5F)[nH]c4nc3=O)cc2)N1 [Compound 468] | > 16 µg/mL | < 16 µg/mL | – | –
32 | CC1=NCC[C@@H]2CCC[C@@H](c3ccc(-n4cc5cc(-c6cc(CCC[C@H](C)N)cc(Cl)c6F)[nH]c5nc4=O)cc3)N12 [Compound 568] | > 16 µg/mL | < 16 µg/mL | – | –
33 | C[C@H](N)CCCc1cc(OC(F)(F)F)c(F)c(-c2cc3cn(-c4ccc([C@H](C)NCC[C@@H](CCN)NC(=N)N)cc4)c(=O)nc3[nH]2)c1 [Compound 335] | < 16 µg/mL | < 16 µg/mL | – | –
34 | C[C@H](N)CCCc1cc(Cl)c(F)c(-c2cc3cn(-c4ccc(C(O)CNC(=N)N)cc4)c(=O)nc3[nH]2)c1 (stereo partly drawn) [Compound 471] | < 16 µg/mL | < 16 µg/mL | – | –
35 | C[C@H](N)CCCc1cc(OC(F)(F)F)c(F)c(-c2cc3cn(-c4ccc([C@@H]5CCC[C@H](CCNC(=N)N)N5)cc4)c(=O)nc3[nH]2)c1 [Compound 439] | < 16 µg/mL | < 16 µg/mL | – | –
36 | Cc1nnc(NC[C@@H](CCNC(=N)N)NCc2ccc(-n3cc4cc(-c5cc(CCC[C@H](C)N)cc(Cl)c5F)[nH]c4nc3=O)cc2)s1 [Compound 560] | < 16 µg/mL | < 16 µg/mL | – | –
37 | C[C@H](N)CCCc1cc(Cl)c(F)c(-c2cc3cn(-c4ccc(CN[C@@H](CCNC(=N)N)CCc5nccs5)cc4)c(=O)nc3[nH]2)c1 [Compound 519] | < 16 µg/mL | < 16 µg/mL | – | –
38 | C[C@H](N)CCCc1cc(Cl)c(F)c(-c2cc3cn(-c4ccc([C@H]5CCC[C@H](CCNc6ncc[nH]6)N5)cc4)c(=O)nc3[nH]2)c1 [Compound 542] | < 16 µg/mL | < 16 µg/mL | – | –
39 | C[C@H](N)CCCc1cc(Cl)c(F)c(-c2cc3cn(-c4ccc(C(O)[C@@H]5C[C@@H](NC(=N)N)CN5)cc4)c(=O)nc3[nH]2)c1 (stereo partly drawn) [Compound 447] | < 16 µg/mL | < 16 µg/mL | – | –
40 | C[C@H](N)CCCc1cc(Cl)c(F)c(-c2cc3cn(-c4ccc([C@H]5CCO[C@H](CCNC(=N)N)C5)cc4)c(=O)nc3[nH]2)c1 [Compound 555] | < 16 µg/mL | < 16 µg/mL | – | –
41 | C=C[C@H](C[C@@H](C)NCc1ccc(-n2cc3cc(-c4cc(CCC[C@H](C)N)cc(OC(F)(F)F)c4F)[nH]c3nc2=O)cc1)NC(=N)N [Compound 372] | < 16 µg/mL | < 16 µg/mL | – | –
42 | C[C@H](N)CCCc1cc(OC(F)(F)F)c(F)c(-c2cc3cn(-c4ccc(CN[C@H](C)C[C@H](CN)NC(=N)N)cc4)c(=O)nc3[nH]2)c1 [Compound 398] | < 16 µg/mL | < 16 µg/mL | – | –
43 | C[C@H](N)CCCc1cc(Cl)c(F)c(-c2cc3cn(-c4ccc(CNCC[C@@H](CN)NC(=N)N)cc4)c(=O)nc3[nH]2)c1 [Compound 375] | < 16 µg/mL | < 16 µg/mL | – | –
44 | C[C@H](N)CCCc1cc(Cl)c(F)c(-c2cc3cn(-c4ccc([C@@H]5COC[C@H](CCNC(=N)N)N5)cc4)c(=O)nc3[nH]2)c1 [Compound 384] | < 16 µg/mL | < 16 µg/mL | – | –
45 | C[C@H](N)CCCc1cc(Cl)c(F)c(-c2cc3cn(-c4ccc([C@H](N)CCNC(=N)N)cc4)c(=O)nc3[nH]2)c1 [Compound 442] | < 16 µg/mL | < 16 µg/mL | – | –
46 | C=C[C@@H]1COC[C@H](c2ccc(-n3cc4cc(-c5cc(CCC[C@H](C)N)cc(Cl)c5F)[nH]c4nc3=O)cc2)N1 [Compound 374] | > 16 µg/mL | > 16 µg/mL | – | –
47 | C[C@H](N)CCCN1CC[C@@H](c2cc3cn(-c4ccc([C@H](C)NCCCNC(=N)N)cc4)c(=O)nc3[nH]2)C1 [Compound 578] | < 16 µg/mL | < 16 µg/mL | – | –
48 | C[C@H](N)CCCc1cc(OC(F)(F)F)c(F)c(-c2cc3cn(-c4ccc(C(N)CNC(=N)N)cc4)c(=O)nc3[nH]2)c1 (stereo partly drawn) [Compound 474] | < 16 µg/mL | < 16 µg/mL | – | –
